According to patent publication US5686472A, “Inhibitors of farnesyl-protein transferase” (Merck & Co., Inc., priority 1993, dated 1997):

tested on: RAS farnesylation in the v-ras cell line; experiment: In vivo ras farnesylation assay (inhibition of RAS farnesylation in the v-ras cell line); assay type: cell-based; conditions: 4 h at 37° C. before labelling, additional 20 h, Table 2
Description: In vivo ras farnesylation assay
The cell line used in this assay was the v-ras line, which expressed viral Ha-ms p21. The assay was performed essentially as described in DeClue, J. E. et. al., Cancer Research 51, 712-717, (1991). Cells in 10 cm dishes at 50-75% confluency were treated with the test compound (final concentration of solvent, methanol or dimethyl sulfoxide, was 0.1%). After 4 hours at 37° C., the cells were labelled in 3 ml methionine-free DMEM supplemented with 10% regular DMEM, 2% fetal bovine serum and 400 μCi[^35 S]methionine (1000 Ci/mmol). After an additional 20 hours, the cells were lysed in 1 ml lysis buffer (1% NP40/20 mM HEPES, pH 7.5/5 mM Mg/Cl2 /1mM DTT/10 μg/ml aprotinen/2 μg/ml leupeptin/2 μg/ml antipain/0.5 mM PMSF) and the lysates cleared by centrifugation at 100,000×g for 45 minutes. Aliquots of lysates containing equal numbers of acid-precipitable counts were bought to 1 ml with IP buffer (lysis buffer lacking DTT) and immunoprecipitated with the ras-specific monoclonal antibody Y13-259 (Furth, M. E. et. al., J. Virol. 43, 294-304, (1982)). Following a 2 hour antibody incubation at 4° C., 200 μl of a 25% suspension of protein A-Sepharose coated with rabbit anti rat IgG was added for 45 minutes. The immunoprecipitates were washed four times with IP was buffer ([…] HEPES, pH 7.5/1 mN EDTA/1% Triton X-100.0.5% deoxycholate/0.1%/SDS.0.1M NaCl) boiled in SDS-Page sample buffer and loaded on 13% acrylamide gels. When the dye front reached the bottom, the gel was fixed, soaked in Enlightening, dried and autoradiographed. The intensities of the bands corresponding to farnesylated and nonfarnesylated ras proteins were compared to determine the percent inhibition of farnesyl transfer to protein.

| Structure (SMILES) | IC50 |
| --- | --- |
| CC[C@H](C)[C@@H](CO[C@@H](Cc1ccccc1)C(=O)N[C@H]1CCOC1=O)NC[C@@H](N)CS [2(S)-[2(S)-[2(R)-Amino-3-mercapto]propylamino-3(S)-methyl]pentyloxy-3-phenylpropionyl-homoserine lactone] | 2.5 µM |
| CC[C@H](C)[C@@H](CO[C@@H](Cc1ccccc1)C(=O)N[C@@H](CCSC)C(=O)OC)NC[C@@H](N)CS [2(S)-[2(S)-[2(R)-Amino-3-mercapto]propylamino-3(S)-methyl]pentyloxy-3-phenylpropionyl-methionine methyl ester] | 0.1 µM |
| CCC[C@H](OC[C@@H](NC[C@@H](N)CS)[C@@H](C)CC)C(=O)N[C@H]1CCOC1=O [2(S)-[2(S)-[2(R)-Amino-3-mercapto]propylamino-3(S)-methyl]pentyloxy-pentanoyl-homoserine lactone] | 10 µM |
| C=CC[C@H](OC[C@@H](NC[C@@H](N)CS)[C@@H](C)CC)C(=O)N[C@H]1CCOC1=O [2(S)-[2(S)-[2(R)-Amino-3-mercapto]propylamino-3(S)-methyl]-pentyloxy-4-pentenoyl-homoserine lactone] | 10 µM |
| CC[C@H](C)[C@@H](CO[C@@H](CC(C)C)C(=O)N[C@H]1CCOC1=O)NC[C@@H](N)CS [2(S)-[2(S)-[2(R)-Amino-3-mercapto]propylamino-3(S)-methyl]pentyloxy4-methylpentanoyl-homoserine lactone] | 10 µM |
| CC[C@H](C)[C@@H](CO[C@@](C)(Cc1ccccc1)C(=O)N[C@H]1CCOC1=O)NC[C@@H](N)CS [2(S)-[2(S)-[2(R)-Amino-3-mercapto]propylamino-3(S)-methyl]pentyloxy-2-methyl-3-phenylpropionyl-homoserine lactone] | 50 µM |
| CC[C@H](C)[C@@H](CO[C@@H](Cc1ccccc1)C(=O)N[C@@H](CCS(C)(=O)=O)C(=O)OC)NC[C@@H](N)CS [2(S)-[2(S)-[2(R)-Amino-3-mercapto]propylamino-3(S)-methyl]pentyloxy-3-phenylpropionyl-methionine sulfone methyl ester] | 0.1 µM |
| CC[C@H](C)[C@@H](CO[C@@H](Cc1ccccc1)C(=O)N[C@@H](CCS(C)(=O)=O)C(=O)OC(C)C)NC[C@@H](N)CS [2(S)-[2(S)-[2(R)-Amino-3-mercapto]-propylamino-3(S)-methyl]pentyloxy-3-phenylpropionyl-methionine sulfone isopropyl ester] | 0.1 µM |

biological target: recombinant human farnesyl transferase (Homo sapiens, UniProt P49354+P49356); experiment: In vitro inhibition of ras farnesyl transferase; assay type: biochemical; conditions: concentration of test compound giving 50% inhibition of FTase, Table 1, read-out: IC50 (inhibition of RAS farnesylation)
Description: In vitro inhibition of ras farnesyl transferase
The assay was conducted as described in Pompliano, et. al., Biochemistry 31, 3800 (1992) with the exception of utilizing recombinant human farnesyl transferase in place of the partially purified bovine enzyme described therein.
*(IC50 is the concentration of the test compound which gives 50%
inhibition of FTase under the described assay conditions.

| Structure (SMILES) | IC50 |
| --- | --- |
| C=CC[C@H](OC[C@@H](NC[C@@H](N)CS)[C@@H](C)CC)C(=O)N[C@@H](CCO)C(=O)O | 0.018 µM |
| CC[C@H](C)[C@@H](CS[C@@](C)(Cc1ccccc1)C(=O)N[C@@H](CCO)C(=O)O)NC[C@@H](N)CS [2(S)-[2(S)-[2(R)-Amino-3-mercapto]propylamino-3(S)-methyl]pentylthio-2-methyl-3-phenylpropionyl-homoserine] | 0.24 µM |
| CC[C@H](C)[C@@H](CO[C@H](C(=O)N[C@@H](CCO)C(=O)O)C(C)c1ccccc1)NC[C@@H](N)CS (stereo partly drawn) [2(S)-[2(S)-[2(R)-Amino-3-mercapto]propylamino-3(S)-methyl]pentyloxy-3-phenylbutanoyl-homoserine] | 0.017 µM |
| CC[C@H](C)[C@@H](CO[C@@H](Cc1ccccc1)C(=O)N[C@@H](CCO)C(=O)O)NC[C@@H](N)CS [2(S)-[2(S)-[2(R)-Amino-3-mercapto]propylamino-3(S)-methyl]pentyloxy-3-phenylpropionyl-homoserine] | 0.005 µM |
| CC[C@H](C)[C@@H](CS(=O)(=O)[C@@](C)(Cc1ccccc1)C(=O)N[C@@H](CCO)C(=O)O)NC[C@@H](N)CS [2(S)-[2(S)-[2(R)-Amino-3-mercapto]propylamino-3(S)-methyl]pentyl-sulfonyl-2-methyl-3-phenylpropionyl-homo-serine] | 0.98 µM |
| CC[C@H](C)[C@@H](CO[C@H](C(=O)N[C@@H](CCO)C(=O)O)C(C)C)NC[C@@H](N)CS [2(S)-[2(S)-[2(R)-Amino-3-mercapto]propylamino-3(S)-methyl]pentyloxy-3-methylbutanoyl-homoserine] | 0.0014 µM |
| CC[C@H](C)[C@@H](CO[C@@H](Cc1ccccc1)C(=O)N[C@@H](CCS(C)(=O)=O)C(=O)O)NC[C@@H](N)CS [2(S)-[2(S)-[2(R)-Amino-3-mercapto]propylamino-3(S)-methyl]-pentyloxy-3-phenylpropionyl-methionine sulfone] | 0.0022 µM |
| CCC[C@H](OC[C@@H](NC[C@@H](N)CS)[C@@H](C)CC)C(=O)N[C@@H](CCO)C(=O)O [2(S)-[2(S)-[2(R)-Amino-3-mercapto]propylamino-3(S)-methyl]-pentyloxy-pentanoyl-homoserine] | 0.007 µM |
| CC[C@H](C)[C@@H](CO[C@@H](Cc1ccccc1)C(=O)N[C@@H](CCSC)C(=O)O)NC[C@@H](N)CS [2(S)-[2(S)-[2(R)-Amino-3-mercapto]propylamino-3(S)-methyl]pentyloxy-3-phenylpropionyl-methionine] | 0.004 µM |
| CC[C@H](C)[C@@H](CO[C@@H](CC(C)C)C(=O)N[C@@H](CCO)C(=O)O)NC[C@@H](N)CS [2(S)-[2(S)-[2(R)-Amino-3-mercapto]propylamino-3(S)-methyl]pentyloxy-4-methylpentanoyl-homoserine] | 0.019 µM |
| CC[C@H](C)[C@@H](CO[C@@](C)(Cc1ccccc1)C(=O)N[C@@H](CCO)C(=O)O)NC[C@@H](N)CS [2(S)-[2(S)-[2(R)-Amino-3-mercapto]propylamino-3(S)-methyl]pentyloxy-2-methyl-3-phenylpropionyl-homoserine] | 0.007 µM |

tested on: not listed separately; experiment: Observation on the isolated TFA salt (hygroscopicity, stability in solution); assay type: physicochemical; conditions: not given

| Structure (SMILES) | hygroscopicity |
| --- | --- |
| CC[C@H](C)[C@@H](CO[C@@H](Cc1ccccc1)C(=O)N[C@H]1CCOC1=O)NC[C@@H](N)CS [2(S)-[2(S)-[2(R)-Amino-3-mercapto]propylamino-3(S)-methyl]pentyloxy-3-phenylpropionyl-homoserine lactone] | hygroscopic |

same assay, conditions: left in solution and exposed to air

| Structure (SMILES) | stability (disulphide formation) |
| --- | --- |
| CC[C@H](C)[C@@H](CO[C@@H](Cc1ccccc1)C(=O)N[C@H]1CCOC1=O)NC[C@@H](N)CS [2(S)-[2(S)-[2(R)-Amino-3-mercapto]propylamino-3(S)-methyl]pentyloxy-3-phenylpropionyl-homoserine lactone] | prone to disulphide formation if left in solution and exposed to air |
